Activity calls are given as the source filed them.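 Rule for the calls: active = compound at 25 µM lifting cell survival 30% over the thapsigargin-only control at any thapsigargin dose; inactive = the rest.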

The values that follow come from PubChem BioAssay AID1352 (Sanford-Burnham Center for Chemical Genomics, 2008).

The first assay deals with differentiated PC12, thapsigargin-induced death, ATPlite luminescence, 24 h. In words: ER stress death protection in PC12 neurons – cell-based, differentiated PC12, rat pheochromocytoma, ATP luminescence, SAR follow-up (AID 1352). The conditions noted are these: at 25 µM; stronger effect = higher value.
Turning to `CCOc1cc(C2Nc3ccccc3NC3=C2C(=O)CC(c2ccc(OC)cc2)C3)cc(Cl)c1O` (stereo not drawn), the survival vs thapsigargin 6.25 uM is 44%.

As to `CCCOc1ccc(C2Nc3ccccc3NC3=C2C(=O)CC(c2ccc(OC)c(OC)c2)C3)cc1` (stereo not drawn), the survival vs thapsigargin 6.25 uM is 33% (inactive).

Take `COc1ccc(C2CC(=O)C3=C(C2)Nc2ccccc2NC3c2cc(C)ccc2C)cc1` (stereo not drawn): the survival vs thapsigargin 6.25 uM was 38%.

On to `COc1ccc(C2CC(=O)C3=C(C2)Nc2ccccc2NC3c2cccc(Oc3ccccc3)c2)cc1OC` (stereo not drawn), for which the survival vs thapsigargin 6.25 uM was 25% (inactive).

For `O=C1CC(c2ccccc2)CC2=C1C(c1c(F)cccc1Cl)Nc1ccccc1N2` (stereo not drawn), the survival vs thapsigargin 6.25 uM was 39% (inactive).

Turning to `COc1ccc(C2CC(=O)C3=C(C2)Nc2ccccc2NC3c2cccc(Br)c2)cc1OC` (stereo not drawn), the survival vs thapsigargin 6.25 uM was 54%.

For `CCOc1cccc(C2Nc3ccccc3NC3=C2C(=O)CC(c2ccc(OC)cc2)C3)c1` (stereo not drawn), the survival vs thapsigargin 6.25 uM was 32% (inactive).

Regarding `COc1ccc(C2CC(=O)C3=C(C2)Nc2ccccc2NC3c2ccccc2C(F)(F)F)cc1OC` (stereo not drawn), the survival vs thapsigargin 6.25 uM was 34% (inactive).

Consider `CC1(C)CC(=O)C2=C(C1)Nc1ccccc1NC2c1ccc(-c2ccccc2)cc1` (stereo not drawn), for which the survival vs thapsigargin 6.25 uM is 81%.

Take `COc1ccc(C2CC(=O)C3=C(C2)Nc2ccccc2NC3c2cccc(C(F)(F)F)c2)cc1OC` (stereo not drawn): the survival vs thapsigargin 6.25 uM was 78%.

For the compound `CSc1ccc(C2Nc3ccccc3NC3=C2C(=O)CC(c2ccccc2)C3)cc1` (stereo not drawn), the survival vs thapsigargin 6.25 uM is 30% (inactive).

The same assay, now with this note: measured here: survival, thapsigargin 0.25 uM; at 25 µM; stronger effect = higher value.
`CCOc1cc(C2Nc3ccccc3NC3=C2C(=O)CC(c2ccc(OC)cc2)C3)cc(Cl)c1O` (stereo not drawn) displayed a survival of 59%.

`CCCOc1ccc(C2Nc3ccccc3NC3=C2C(=O)CC(c2ccc(OC)c(OC)c2)C3)cc1` (stereo not drawn) registered a survival of 32%.

For the compound `COc1ccc(C2CC(=O)C3=C(C2)Nc2ccccc2NC3c2cc(C)ccc2C)cc1` (stereo not drawn), the survival turned out to be 51%.

Compound `COc1ccc(C2CC(=O)C3=C(C2)Nc2ccccc2NC3c2cccc(Oc3ccccc3)c2)cc1OC` (stereo not drawn) yielded a survival of 21%.

For the compound `O=C1CC(c2ccccc2)CC2=C1C(c1c(F)cccc1Cl)Nc1ccccc1N2` (stereo not drawn), the survival turned out to be 38%.

As to `COc1ccc(C2CC(=O)C3=C(C2)Nc2ccccc2NC3c2cccc(Br)c2)cc1OC` (stereo not drawn), the survival amounted to 54%.

Compound `CCOc1cccc(C2Nc3ccccc3NC3=C2C(=O)CC(c2ccc(OC)cc2)C3)c1` (stereo not drawn) showed a survival of 26%.

Compound `COc1ccc(C2CC(=O)C3=C(C2)Nc2ccccc2NC3c2ccccc2C(F)(F)F)cc1OC` (stereo not drawn) returned a survival of 30%.

In turn, `CC1(C)CC(=O)C2=C(C1)Nc1ccccc1NC2c1ccc(-c2ccccc2)cc1` (stereo not drawn) had a survival of 76%.

For the compound `COc1ccc(C2CC(=O)C3=C(C2)Nc2ccccc2NC3c2cccc(C(F)(F)F)c2)cc1OC` (stereo not drawn), the survival was found to be 44%.

On to `CSc1ccc(C2Nc3ccccc3NC3=C2C(=O)CC(c2ccccc2)C3)cc1` (stereo not drawn), for which the survival amounted to 22%.

The assay is the same for the next values; noted with them: measured here: survival, thapsigargin 1.25 uM; at 25 µM; stronger effect = higher value.
Compound `CCOc1cc(C2Nc3ccccc3NC3=C2C(=O)CC(c2ccc(OC)cc2)C3)cc(Cl)c1O` (stereo not drawn) registered a survival of 38%.

The compound `CCCOc1ccc(C2Nc3ccccc3NC3=C2C(=O)CC(c2ccc(OC)c(OC)c2)C3)cc1` (stereo not drawn) came in with a survival of 22%.

Compound `COc1ccc(C2CC(=O)C3=C(C2)Nc2ccccc2NC3c2cc(C)ccc2C)cc1` (stereo not drawn) returned a survival of 29%.

In turn, `COc1ccc(C2CC(=O)C3=C(C2)Nc2ccccc2NC3c2cccc(Oc3ccccc3)c2)cc1OC` (stereo not drawn) displayed a survival of 16%.

Compound `O=C1CC(c2ccccc2)CC2=C1C(c1c(F)cccc1Cl)Nc1ccccc1N2` (stereo not drawn) returned a survival of 19%.

Turning to `COc1ccc(C2CC(=O)C3=C(C2)Nc2ccccc2NC3c2cccc(Br)c2)cc1OC` (stereo not drawn), the survival stood at 37%.

In the case of `CCOc1cccc(C2Nc3ccccc3NC3=C2C(=O)CC(c2ccc(OC)cc2)C3)c1` (stereo not drawn), the survival stood at 19%.

In turn, `COc1ccc(C2CC(=O)C3=C(C2)Nc2ccccc2NC3c2ccccc2C(F)(F)F)cc1OC` (stereo not drawn) returned a survival of 25%.

Compound `CC1(C)CC(=O)C2=C(C1)Nc1ccccc1NC2c1ccc(-c2ccccc2)cc1` (stereo not drawn) came in with a survival of 41%.

The compound `COc1ccc(C2CC(=O)C3=C(C2)Nc2ccccc2NC3c2cccc(C(F)(F)F)c2)cc1OC` (stereo not drawn) had a survival of 48%.

In turn, `CSc1ccc(C2Nc3ccccc3NC3=C2C(=O)CC(c2ccccc2)C3)cc1` (stereo not drawn) had a survival of 17%.
